According to patent publication US20250230153A1, “2,3-DIHYDROBENZO[B][1,4]DIOXIN-6-YL CONTAINING COMPOUNDS USEFUL AS IMMUNOMODULATORS” (BRISTOL-MYERS SQUIBB COMPANY, priority 2021, published 2025):

Target: PD-1/PD-L1 (Homo sapiens (Human), UniProt Q9NZQ7)
Assay: PD-1/PD-L1 Homogenous Time-Resolved Fluorescence (HTRF) binding assay
Settings: PD-1-Ig (20 nM final)/PD-L1-His (10 nM final) binding assay
Text: The ability of the compounds of the invention to bind to PD-L1 was investigated using a PD-1/PD-L1 Homogenous Time-Resolved Fluorescence (HTRF) binding assay.
The interaction of PD-1 and PD-L1 can be assessed using soluble, purified preparations of the extracellular domains of the two proteins. The PD-1 and PD-L1 protein extracellular domains were expressed as fusion proteins with detection tags, for PD-1, the tag was the Fc portion of Immunoglobulin (PD-1-Ig) and for PD-L1 it was the 6 histidine motif (PD-L1-His). All binding studies were performed in an HTRF assay buffer consisting of dPBS supplemented with 0.1% […] bovine serum albumin and 0.05% (v/v) Tween-20. For the h/PD-L1-His binding assay, inhibitors were pre-incubated with PD-L1-His (10 nM final) for 15m in 4 μl of assay buffer, followed by addition of PD-1-Ig (20 nM final) in 1 μl of assay buffer and further incubation for 15 m. HTRF detection was achieved using europium crypate-labeled anti-Ig (1 nM final) and allophycocyanin (APC) labeled anti-His (20 nM final). Antibodies were diluted in HTRF detection buffer and 5 μl was dispensed on top of the binding reaction. The reaction mixture was allowed to equilibrate for 30 minutes and the resulting signal (665 nm/620 nm ratio) was obtained using an EnVision fluorometer. Additional binding assays were established between the human proteins PD-1-Ig/PD-L2-His (20 & 5 nM, respectively) and CD80-His/PD-L1-Ig (100 & 10 nM, respectively).
Recombinant Proteins: Human PD-1 (25-167) with a C-terminal human Fc domain of immunoglobulin G (Ig) epitope tag [hPD-1 (25-167)-3S-IG] and human PD-L1 (18-239) with a C-terminal His epitope tag [hPD-L1(18-239)-TVMV-His] were expressed in HEK293T cells and purified sequentially by ProteinA affinity chromatography and size exclusion chromatography. Human PD-L2-His and CD80-His was obtained through commercial sources.
Homogenous Time-Resolved Fluorescence (HTRF) Assays of Binding of Soluble PD-1 to Soluble PD-L1. Soluble PD-1 and soluble PD-L1 refers to proteins with carboxyl-end truncations that remove the transmembrane-spanning regions and are fused to heterologous sequences, specifically the Fc portion of the human immunoglobuling G sequence (Ig) or the hexahistidine epitope tag (His). All binding studies were performed in an HTRF assay buffer consisting of dPBS supplemented with 0.1% (w/v) bovine serum albumin and 0.05% (v/v) Tween-20. For the PD-1-Ig/PD-L1-His binding assay, inhibitors were pre-incubated with PD-L1-His (10 nM final) for 15m in 4 μl of assay buffer, followed by addition of PD-1-Ig (20 nM final) in 1 μl of assay buffer and further incubation for 15 m. PD-L1 fusion proteins from either human, cynomologous macaques, mouse, or other species were used. HTRF detection was achieved using europium crypate-labeled anti-Ig monoclonal antibody (1 nM final) and allophycocyanin (APC) labeled anti-His monoclonal antibody (20 nM final). Antibodies were diluted in HTRF detection buffer and 5 μl was dispensed on top of binding reaction. The reaction was allowed to equilibrate for 30 minutes and signal (665 nm/620 nm ratio) was obtained using an EnVision fluorometer. Additional binding assays were established between PD-1-Ig/PD-L2-His (20 and 5 nM, respectively), CD80-His/PD-L1-Ig (100 and 10 nM, respectively) and CD80-His/CTLA4-Ig (10 and 5 nM, respectively).
Recombinant Proteins. Carboxyl-truncated human PD-1 (amino acids 25-167) with a C-terminal human Ig epitope tag [hPD-1 (25-167)-3S-IG] and human PD-L1 (amino acids 18-239) with a C-terminal His epitope tag [hPD-L1(19-239)-tobacco vein mottling virus protease cleavage site (TVMV)-His] were expressed in HEK293T cells and purified sequentially by recombinant Protein A affinity chromatography and size exclusion chromatography. Human PD-L2-His (Sino Biologicals), CD80-His (Sino Biologicals), CTLA4-Ig (RnD Systems) were all obtained through commercial sources.

PD-1/PD-L1, sequence (Q9NZQ7 18-239): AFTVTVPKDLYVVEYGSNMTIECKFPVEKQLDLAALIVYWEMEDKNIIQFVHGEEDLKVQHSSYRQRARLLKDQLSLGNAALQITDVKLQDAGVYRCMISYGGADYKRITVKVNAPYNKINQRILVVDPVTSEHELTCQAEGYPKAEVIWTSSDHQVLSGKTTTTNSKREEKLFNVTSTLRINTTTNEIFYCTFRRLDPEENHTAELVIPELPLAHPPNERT

IC50 [nM] | SMILES
0.4 | Cc1c(COc2cc(OCCN3CCCCC3)c(CN[C@](C)(CO)C(=O)O)cc2Cl)cccc1-c1ccc2c(c1)OCCO2 [Example 1043, (R)-2-((5-Chloro-4-((3-(2,3-dihydrobenzo[b][1,4]dioxin-6-yl)-2-methylbenzyl)oxy)-2-(2-(piperidin-1-yl)ethoxy)benzyl)amino)-3-hydroxy-2-methylpropanoic acid]
0.5 | Cc1c(COc2cc(OCCN3CC[C@@H](O)C3)c(CNC(C)(CO)CO)cc2Cl)cccc1-c1ccc2c(c1)OCCO2 [Example 1024, (R)-2-((5-Chloro-4-((3-(2,3-dihydrobenzo[b][1,4]dioxin-6-yl)-2-methylbenzyl)oxy)-2-(2-(3-hydroxypyrrolidin-1-yl)ethoxy)benzyl)amino)-2-methylpropane-1,3-diol]
6.6 | Cc1c(COc2cc(OCc3cncc(SCCC(=O)O)c3)c(CN[C@@](C)(CO)C(=O)O)cc2Cl)cccc1-c1ccc2c(c1)OCCO2 [Example 1014, (S)-2-((2-((5-((2-Carboxyethyl)thio)pyridin-3-yl)methoxy)-5-chloro-4-((3-(2,3-dihydrobenzo[b][1,4]dioxin-6-yl)-2-methylbenzyl)oxy)benzyl)amino)-3-hydroxy-2-methylpropanoic acid]
1.4 | COC(=O)C1(O)CCN(CCOc2cc(OCc3cccc(-c4ccc5c(c4)OCCO5)c3C)c(Cl)cc2CNC(C)(CO)CO)CC1 [Example 1053, Methyl 1-(2-(4-chloro-5-((3-(2,3-dihydrobenzo[b][1,4]dioxin-6-yl)-2-methylbenzyl)oxy)-2-(((1,3-dihydroxy-2-methylpropan-2-yl)amino)methyl)phenoxy)ethyl)-4-hydroxypiperidine-4-carboxylate]
0.4 | Cc1c(COc2cc(OCCN3CCC(O)(C(=O)O)CC3)c(CN[C@](C)(CO)C(=O)O)cc2Cl)cccc1-c1ccc2c(c1)OCCO2 [Example 1055, (R)-1-(2-(2-(((2-Carboxy-1-hydroxypropan-2-yl)amino)methyl)-4-chloro-5-((3-(2,3-dihydrobenzo[b]1[1,4]dioxin-6-yl)-2-methylbenzyl)oxy)phenoxy)ethyl)-4-hydroxypiperidine-4-carboxylic acid]
6.5 | Cc1c(COc2cc(OCCCN(C)C)c(CN[C@@H](CO)C(=O)O)cc2Cl)cccc1-c1ccc2c(c1)OCCO2 [Example 2002, (S)-2-((5-chloro-4-((3-(2,3-dihydrobenzo[b][1,4]dioxin-6-yl)-2-methylbenzyl)oxy)-2-(3-(dimethylamino)propoxy)benzyl)amino)-3-hydroxypropanoic acid]
3.9 | Cc1c(COc2cc(OC[C@H](C)CO)c(CNC(C)(CO)CO)cc2Cl)cccc1-c1ccc2c(c1)OCCO2 [Example 1033, (R)-2-((5-Chloro-4-((3-(2,3-dihydrobenzo[b][1,4]dioxin-6-yl)-2-methylbenzyl)oxy)-2-(3-hydroxy-2-methylpropoxy)benzyl)amino)-2-methylpropane-1,3-diol]
9.5 | Cc1c(COc2cc(OCCCN(C)C)c(CN[C@@](C)(CO)C(=O)O)cc2Cl)cccc1-c1ccc2c(c1)OCCO2 [Example 2001, (S)-2-((5-chloro-4-((3-(2,3-dihydrobenzo[b][1,4]dioxin-6-yl)-2-methylbenzyl)oxy)-2-(3-(dimethylamino)propoxy)benzyl)amino)-3-hydroxy-2-methylpropanoic acid]
2.3 | Cc1c(COc2cc(OCCN3CCOCC3)c(CNC(C)(CO)CO)cc2Cl)cccc1-c1ccc2c(c1)OCCO2 [Example 1039, 2-((5-Chloro-4-((3-(2,3-dihydrobenzo[b][1,4]dioxin-6-yl)-2-methylbenzyl)oxy)-2-(2-morpholinoethoxy)benzyl)amino)-2-methylpropane-1,3-diol]

Continued, compound first:

SMILES | IC50 [nM]
Cc1c(COc2cc(OCCCCN3CC[C@@H](O)C3)c(CN[C@](C)(CO)C(=O)O)cc2Cl)cccc1-c1ccc2c(c1)OCCO2 [Example 1026, (R)-2-((5-Chloro-4-((3-(2,3-dihydrobenzo[b][1,4]dioxin-6-yl)-2-methylbenzyl)oxy)-2-(4-((R)-3-hydroxypyrrolidin-1-yl)butoxy)benzyl)amino)-3-hydroxy-2-methylpropanoic acid] | 2.2
Cc1c(COc2cc(OCCCC(F)(F)F)c(CN[C@](C)(CO)C(=O)O)cc2Cl)cccc1-c1ccc2c(c1)OCCO2 [Example 1029, (R)-2-((5-Chloro-4-((3-(2,3-dihydrobenzo[b][1,4]dioxin-6-yl)-2-methylbenzyl)oxy)-2-(4,4,4-trifluorobutoxy)benzyl)amino)-3-hydroxy-2-methylpropanoic acid] | 1.2
Cc1c(COc2cc(OCCCC(F)(F)F)c(CN3CCCC[C@H]3C(=O)O)cc2Cl)cccc1-c1ccc2c(c1)OCCO2 [Example 1028, (S)-1-(5-Chloro-4-((3-(2,3-dihydrobenzo[b][1,4]dioxin-6-yl)-2-methylbenzyl)oxy)-2-(4,4,4-trifluorobutoxy)benzyl)piperidine-2-carboxylic acid] | 1.8
Cc1c(COc2cc(OCc3cncc(C(=O)NS(C)(=O)=O)c3)c(CN3CCCC[C@H]3C(=O)O)cc2Cl)cccc1-c1ccc2c(c1)OCCO2 [Example 1021, (S)-1-(5-Chloro-4-((3-(2,3-dihydrobenzo[b][1,4]dioxin-6-yl)-2-methylbenzyl)oxy)-2-((5-((methylsulfonyl)carbamoyl)pyridin-3-yl)methoxy)benzyl)piperidine-2-carboxylic acid] | 5.7
Cc1c(COc2cc(OCC3CCOCC3)c(CNC(C)(CO)CO)cc2Cl)cccc1-c1ccc2c(c1)OCCO2 [Example 1047, 2-((5-Chloro-4-((3-(2,3-dihydrobenzo[b][1,4]dioxin-6-yl)-2-methylbenzyl)oxy)-2-((tetrahydro-2H-pyran-4-yl)methoxy)benzyl)amino)-2-methylpropane-1,3-diol] | 5.4
Cc1cnc(COc2cc(OCc3cccc(-c4ccc5c(c4)OCCO5)c3C)c(Cl)cc2CN[C@H](CO)C(=O)O)cn1 [Example 1001, (R)-2-((5-Chloro-4-((3-(2,3-dihydrobenzo[b][1,4]dioxin-6-yl)-2-methylbenzyl)oxy)-2-((5-methylpyrazin-2-yl)methoxy)benzyl)amino)-3-hydroxypropanoic acid] | 4.5
Cc1c(COc2cc(OCCCC(F)(F)F)c(CNC(C)(CO)CO)cc2Cl)cccc1-c1ccc2c(c1)OCCO2 [Example 1030, 2-((5-Chloro-4-((3-(2,3-dihydrobenzo[b][1,4]dioxin-6-yl)-2-methylbenzyl)oxy)-2-(4,4,4-trifluorobutoxy)benzyl)amino)-2-methylpropane-1,3-diol] | 6.5
Cc1c(COc2cc(OCCN3CCCC(O)(C(F)(F)F)C3)c(CNC(C)(CO)CO)cc2Cl)cccc1-c1ccc2c(c1)OCCO2 (stereo not drawn) [Example 1059, 2-((5-Chloro-4-((3-(2,3-dihydrobenzo[b][1,4]dioxin-6-yl)-2-methylbenzyl)oxy)-2-(2-(3-hydroxy-3-(trifluoromethyl)piperidin-1-yl)ethoxy)benzyl)amino)-2-methylpropane-1,3-diol] | 2.2
Cc1c(COc2cc(OCC(=O)N3CCS(=O)(=O)CC3)c(CN3CCCC[C@H]3C(=O)O)cc2Cl)cccc1-c1ccc2c(c1)OCCO2 [Example 1061, (S)-1-(5-chloro-4-((3-(2,3-dihydrobenzo[b][1,4]dioxin-6-yl)-2-methylbenzyl)oxy)-2-(2-(1,1-dioxidothiomorpholino)-2-oxoethoxy)benzyl)piperidine-2-carboxylic acid] | 455
